Data from ChEMBL document CHEMBL3102850, “Microwave assisted synthesis of naphthopyrans catalysed by silica supported fluoroboric acid as a new class of non purine xanthine oxidase inhibitors” (Bioorg Med Chem Lett, 2014).

Experiments:
[1] = molecular target: T1, Xanthine dehydrogenase/oxidase (Bos taurus, UniProt P80457); assay: Inhibition of bovine milk xanthine oxidase using xanthine as substrate assessed as decrease in uric acid formation at 50 uM preincubated for 5 mins; conditions: cattle
[2] = molecular target: T1, Xanthine dehydrogenase/oxidase; assay: Inhibition of bovine milk xanthine oxidase using xanthine as substrate assessed as decrease in uric acid formation preincubated for 5 mins

T1 sequence (P80457 whole entry): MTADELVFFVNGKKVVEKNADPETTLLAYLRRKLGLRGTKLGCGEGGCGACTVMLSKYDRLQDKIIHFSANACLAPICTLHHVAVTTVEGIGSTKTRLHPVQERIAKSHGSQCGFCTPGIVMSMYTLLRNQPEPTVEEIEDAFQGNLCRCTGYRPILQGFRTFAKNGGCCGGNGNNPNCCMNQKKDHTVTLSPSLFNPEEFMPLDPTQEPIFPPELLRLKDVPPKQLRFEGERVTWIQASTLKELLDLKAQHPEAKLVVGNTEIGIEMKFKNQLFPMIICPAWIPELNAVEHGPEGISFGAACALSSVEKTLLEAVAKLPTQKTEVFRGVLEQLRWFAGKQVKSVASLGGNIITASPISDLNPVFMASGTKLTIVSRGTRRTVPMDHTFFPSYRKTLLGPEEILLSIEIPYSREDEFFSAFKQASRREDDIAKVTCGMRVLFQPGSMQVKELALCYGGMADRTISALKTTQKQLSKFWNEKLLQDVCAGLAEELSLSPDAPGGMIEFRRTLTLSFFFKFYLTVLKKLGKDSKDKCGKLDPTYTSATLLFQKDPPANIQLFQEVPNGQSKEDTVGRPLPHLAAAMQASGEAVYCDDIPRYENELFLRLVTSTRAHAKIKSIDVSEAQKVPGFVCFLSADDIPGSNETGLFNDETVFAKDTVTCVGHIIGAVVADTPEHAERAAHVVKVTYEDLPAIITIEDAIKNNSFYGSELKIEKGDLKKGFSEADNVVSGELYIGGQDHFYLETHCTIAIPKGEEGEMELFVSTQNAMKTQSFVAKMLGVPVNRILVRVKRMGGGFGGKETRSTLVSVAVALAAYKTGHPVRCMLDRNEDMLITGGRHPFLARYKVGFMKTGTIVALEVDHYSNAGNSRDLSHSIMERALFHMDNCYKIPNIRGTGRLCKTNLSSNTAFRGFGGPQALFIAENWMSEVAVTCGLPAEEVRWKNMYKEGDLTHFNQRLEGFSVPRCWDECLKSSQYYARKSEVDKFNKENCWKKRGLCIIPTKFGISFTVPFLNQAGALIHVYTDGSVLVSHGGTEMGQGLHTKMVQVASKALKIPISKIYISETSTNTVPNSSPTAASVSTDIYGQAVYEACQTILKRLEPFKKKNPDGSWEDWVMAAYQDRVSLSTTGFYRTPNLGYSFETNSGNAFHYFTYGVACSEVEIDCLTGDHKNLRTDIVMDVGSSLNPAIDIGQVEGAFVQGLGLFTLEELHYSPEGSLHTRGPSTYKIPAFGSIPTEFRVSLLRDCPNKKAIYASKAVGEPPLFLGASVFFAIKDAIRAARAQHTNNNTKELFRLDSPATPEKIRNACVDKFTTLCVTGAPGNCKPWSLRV

Structure (SMILES)	inhibition at 50 µM [1]	IC50 [2]
CCOC(=O)C1=C(C)Oc2ccc3ccccc3c2C1/C=C/c1ccccc1 (stereo unspecified)	11.3%	
CCOC(=O)C1=C(C)Oc2ccc3ccccc3c2C1c1ccco1 (stereo unspecified)	88.6%	13.2 µM
COC(=O)C1=C(C)Oc2ccc3ccccc3c2C1c1ccco1 (stereo unspecified)	92.5%	10 µM
COC(=O)C1=C(C)Oc2ccc3ccccc3c2C1c1cc(OC)c(OC)c(OC)c1 (stereo unspecified)	50%	
CCOC(=O)C1=C(C)Oc2ccc3ccccc3c2C1c1ccccc1 (stereo unspecified)	65.2%	44.4 µM
CCOC(=O)C1=C(C)Oc2ccc3ccccc3c2C1c1ccc(OC)c(OC)c1 (stereo unspecified)	62.3%	
COC(=O)C1=C(C)Oc2ccc3ccccc3c2C1c1cccc(Oc2ccccc2)c1 (stereo unspecified)	59.6%	
COC(=O)C1=C(C)Oc2ccc3ccccc3c2C1c1ccc([N+](=O)[O-])cc1 (stereo unspecified)	25%	
CCCCCC1C(C(=O)OC)=C(C)Oc2ccc3ccccc3c21 (stereo unspecified)	58.9%	
CCOC(=O)C1=C(C)Oc2ccc3ccccc3c2C1c1ccc(OC)cc1 (stereo unspecified)	56.5%	
CCOC(=O)C1=C(C)Oc2ccc3ccccc3c2C1c1cccs1 (stereo unspecified)	89%	11.4 µM
COC(=O)C1=C(C)Oc2ccc3ccccc3c2C1	32%	
COC(=O)C1=C(C)Oc2ccc3ccccc3c2C1c1ccccc1OC (stereo unspecified)	58.8%	
COC(=O)C1=C(C)Oc2ccc3ccccc3c2C1c1ccc(OC)c(OC)c1 (stereo unspecified)	78.2%	17 µM
CCOC(=O)C1=C(C)Oc2ccc3ccccc3c2C1c1ccc([N+](=O)[O-])cc1 (stereo unspecified)	21.4%	
COC(=O)C1=C(C)Oc2ccc3ccccc3c2C1c1ccc(OC)c(O)c1 (stereo unspecified)	69.3%	
COC(=O)C1=C(C)Oc2ccc3ccccc3c2C1c1ccc(Cl)cc1 (stereo unspecified)	23.9%	
COC(=O)C1=C(C)Oc2ccc3ccccc3c2C1c1sccc1C (stereo unspecified)	93.3%	7.31 µM
COC(=O)C1=C(C)Oc2ccc3ccccc3c2C1c1ccc(O)cc1 (stereo unspecified)	72.4%	24 µM
COC(=O)C1=C(C)Oc2ccc3ccccc3c2C1c1cccs1 (stereo unspecified)	96.6%	4 µM
CCOC(=O)C1=C(C)Oc2ccc3ccccc3c2C1c1ccc(OC)c(O)c1 (stereo unspecified)	64.7%	
COC(=O)C1=C(C)Oc2ccc3ccccc3c2C1c1ccc(OC)cc1 (stereo unspecified)	68.7%	36.5 µM
CCOC(=O)C1=C(C)Oc2ccc3ccccc3c2C1c1cccc(Oc2ccccc2)c1 (stereo unspecified)	50.5%	
CCOC(=O)C1=C(C)Oc2ccc3ccccc3c2C1c1ccc(Cl)cc1 (stereo unspecified)	20.9%	
COC(=O)C1=C(C)Oc2ccc3ccccc3c2C1c1ccc(O)c(OC)c1 (stereo unspecified)	67.5%	
COC(=O)C1=C(C)Oc2ccc3ccccc3c2C1c1ccc[nH]1 (stereo unspecified)	94.5%	6.23 µM
